From US20230312587A1, “PTERIDINONE COMPOUNDS AND USES THEREOF” (Vertex Pharmaceutical Incorporated, priority 2018, published 2023)
Like-named read-outs stand apart in the source and are kept apart here.

Experiments:
[1] = tested on: β-catenin-TCF-mediated reporter transcription activity in Colo 205 cells; test: Colo 205 reporter assay (TCF/LEF luciferase); type: cell-based; details: five hours after addition of compound
Method in brief: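 Luciferase signal from a TCF/LEF-driven reporter, stably integrated in Colo 205 colon cancer cells, was measured 5 h after compound addition.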

Colo-205 cells = test: Calcium flux assay (FLIPR Calcium 5); type: cell-based; details: FLIPR Calcium 5, measured over 36 minutes
Experimental: Compounds described herein induced ER stress by causing intracellular calcium flux. Calcium flux was measured in Colo-205 cells using the FLTPR® Calcium 5 Assay Kit according to manufacter's protocol (Molecular Devices, Cat. #R8186) on a FLIPR3 system (Molecular Devices). Calcium flux is measured over 36 minutes. The Colo-205 calcium flux assay data are summarized in Table 47: A<0.6 μM; 0.6 μM≤B<2.0 μM; 2.0 μM≤C<10.0 μM; D≥10.0 μM.

[2] = molecular target: HEK293 membranes over-expressing WFS-1 (Homo sapiens (Human), UniProt O76024); test: Radioligand displacement assay (tritiated Compound 136 probe); type: binding; details: displacement of tritiated Compound 136
HEK293 membranes over-expressing WFS-1, sequence (O76024 whole entry): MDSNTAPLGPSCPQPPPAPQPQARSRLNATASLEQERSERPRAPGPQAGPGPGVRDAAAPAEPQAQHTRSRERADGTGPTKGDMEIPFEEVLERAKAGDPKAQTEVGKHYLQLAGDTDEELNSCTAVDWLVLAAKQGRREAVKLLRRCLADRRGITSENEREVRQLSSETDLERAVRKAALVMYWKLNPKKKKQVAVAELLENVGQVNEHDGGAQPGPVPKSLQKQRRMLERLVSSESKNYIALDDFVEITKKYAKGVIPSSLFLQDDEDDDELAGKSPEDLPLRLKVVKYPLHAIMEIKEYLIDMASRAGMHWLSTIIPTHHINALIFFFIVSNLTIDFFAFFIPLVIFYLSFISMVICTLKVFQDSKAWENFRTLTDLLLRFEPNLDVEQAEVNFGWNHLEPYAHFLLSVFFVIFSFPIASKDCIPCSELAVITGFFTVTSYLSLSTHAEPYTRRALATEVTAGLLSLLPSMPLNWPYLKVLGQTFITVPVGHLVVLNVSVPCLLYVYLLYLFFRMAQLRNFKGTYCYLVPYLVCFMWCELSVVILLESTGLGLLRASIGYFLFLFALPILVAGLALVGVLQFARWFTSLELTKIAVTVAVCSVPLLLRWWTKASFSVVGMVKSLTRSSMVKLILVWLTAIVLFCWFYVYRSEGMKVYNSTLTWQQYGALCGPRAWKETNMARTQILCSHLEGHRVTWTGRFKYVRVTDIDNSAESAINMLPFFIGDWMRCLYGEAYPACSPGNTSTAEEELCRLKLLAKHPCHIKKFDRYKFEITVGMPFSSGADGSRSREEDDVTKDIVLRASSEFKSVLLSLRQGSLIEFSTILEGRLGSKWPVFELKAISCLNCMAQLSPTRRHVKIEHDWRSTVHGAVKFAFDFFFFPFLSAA
Method in brief: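 WFS-1-overexpressing HEK293 membranes were preincubated 10 min with compound, then tritiated probe was added for 90 min at room temperature. Bound probe was collected by filtration on PEI-pretreated GF/B filters, washed and scintillation-counted. IC50 came from a 3-parameter fit of bound probe vs compound concentration.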

[3] = Homo sapiens, COLO 205, 5 h, Colo 205 TCF/LEF luciferase reporter, read-out: TCF reporter Colo205 IC50
[4] = Colo 205 TCF/LEF luciferase reporter, read-out: TCF reporter Colo205 IC50

Compound | IC50 [1, 3] | EC50 (Colo-205 cells; Homo sapiens, COLO 205, 0.6 h) | IC50 [2] | IC50 [1, 4] | EC50 (Colo-205 cells) | IC50 ([1]; Homo sapiens, COLO 205, 5 h, Colo 205 cells with stably transfected TCF/LEF luciferase reporter, read-out: TCF reporter Colo205)
Cc1nc(N[C@@H]2CC[C@@H](Oc3cc(F)c(F)c(F)c3)C2)nc2c1N(C)C(=O)[C@H](C)N2C [Compound 272, (S)-4,5,7,8-tetramethyl-2-(((1R,3R)-3-(3,4,5-trifluorophenoxy)cyclopentyl)amino)-7,8-dihydropteridin-6(5H)-one] | < 300 nM | 600 to 2000 nM | 60 to 600 nM | – | – | –
Cc1nc(NCc2cnn(Cc3ccc(F)cc3)c2)nc2c1N(C)C(=O)[C@H](C)N2C [Compound 1, (7S)-2-(((1-(4-fluorobenzyl)-1H-pyrazol-4-yl)methyl)amino)-4,5,7,8-tetramethyl-7,8-dihydropteridin-6(5H)-one] | < 300 nM | < 600 nM | 60 to 600 nM | – | – | –
Cc1nc(NCc2cnn([C@@H]3CCN(c4ccc(F)cc4)C3)c2)nc2c1NC(=O)[C@H](C)N2C [Compound 170, (7S)-2-(((1-((R)-1-(4-fluorophenyl)pyrrolidin-3-yl)-1H-pyrazol-4-yl)methyl)amino)-4,7,8-trimethyl-7,8-dihydropteridin-6(5H)-one] | < 300 nM | < 600 nM | 60 to 600 nM | – | – | –
CCOc1ccc(CCn2cc(CNc3ncc4c(n3)N(C)[C@@H](C)C(=O)N4)cn2)cc1 [Compound 121, (7S)-2-(((1-(4-ethoxyphenethyl)-1H-pyrazol-4-yl)methyl)amino)-7,8-dimethyl-7,8-dihydropteridin-6(5H)-one] | 1000 to 5000 nM | 600 to 2000 nM | 60 to 600 nM | – | – | –
Cc1ccc(Cn2cc(CNc3nc(C)c4c(n3)N(C)[C@@H](C)C(=O)N4)cn2)cn1 [Compound 173, (7S)-4,7,8-trimethyl-2-(((1-((6-methylpyridin-3-yl)methyl)-1H-pyrazol-4-yl)methyl)amino)-7,8-dihydropteridin-6(5H)-one] | 1000 to 5000 nM | 2000 to 10000 nM | 600 to 3000 nM | – | – | –
Cc1nc(NCc2cnn(Cc3ccc(F)nc3)c2)nc2c1NC(=O)[C@H](C1CC1)N2C [Compound 421, (7S)-7-cyclopropyl-2-(((1-((6-fluoropyridin-3-yl)methyl)-1H-pyrazol-4-yl)methyl)amino)-4,8-dimethyl-7,8-dihydropteridin-6(511)-one] | – | – | 60 to 600 nM | < 300 nM | 600 to 2000 nM | –
Cc1nc(NCc2cnn(Cc3ccc(F)nc3)c2)nc2c1NC(=O)[C@H](C)N2C [Compound 77] | < 300 nM | 600 to 2000 nM | 60 to 600 nM | – | – | –
Cc1nc(N[C@H]2C[C@H](COc3cc(F)c(F)c(F)c3)C2)nc2c1NC(=O)[C@H](C)N2C [Compound 258, (7S)-4,7,8-trimethyl-2-((trans-3-((3,4,5-trifluorophenoxy)methyl)-cyclobutyl)amino)-7,8-dihydropteridin-6(5H)-one] | 1000 to 5000 nM | 600 to 2000 nM | 60 to 600 nM | – | – | –
Cc1nc(NCc2cnn(Cc3cc(C(F)(F)F)nn3C)c2)nc2c1NC(=O)[C@H](C(C)C)N2C [Compound 397, (7S)-7-Isopropyl-4,8-dimethyl-2-(((1-((1-methyl-3-(trifluoromethyl)-1H-pyrazol-5-yl)methyl)-1H-pyrazol-4-yl)methyl)amino)-7,8-dihydropteridin-6(5H)-one] | – | 600 to 2000 nM | 60 to 600 nM | – | – | < 300 nM
Cc1nc(NCc2cn(Cc3ccc(C(F)(F)F)nc3)cn2)nc2c1NC(=O)[C@H](C)N2C [Compound 428, (S)-4,7,8-trimethyl-2-(((1-((6-(trifluoromethyl)pyridin-3-yl)methyl)-1H-imidazol-4-yl)methyl)amino)-7,8-dihydropteridin-6(5H)-one] | ≥ 5000 nM | ≥ 10000 nM | ≥ 3000 nM | – | – | –
(7S)-4,7,8-trimethyl-2-((trans-3-(3,4-difluorophenoxy)cyclobutyl)amino)-7,8-dihydropteridin-6(5H)-one [Compound 251] | – | – | 60 to 600 nM | 300 to 1000 nM | 600 to 2000 nM | –
CC[C@H]1C(=O)Nc2c(C)nc(NCc3cnn(Cc4ccc(C(F)(F)F)nc4)c3)nc2N1C [Compound 186, (7S)-7-ethyl-4,8-dimethyl-2-(((1-((6-(trifluoromethyl)pyridin-3-yl)methyl)-1H-pyrazol-4-yl)methyl)amino)-7,8-dihydropteridin-6(5H)-one] | < 300 nM | 600 to 2000 nM | 60 to 600 nM | – | – | –
Cc1nc(NCc2cnn(CC(C)(O)c3ccc(F)cc3)c2)nc2c1NC(=O)[C@H](C)N2C (stereo partly drawn) [Compound 128, (7S)-2-(((1-(2-(4-fluorophenyl)-2-hydroxypropyl)-1H-pyrazol-4-yl)methyl)amino)-4,7,8-trimethyl-7,8-dihydropteridin-6(5H)-one] | 1000 to 5000 nM | 2000 to 10000 nM | ≥ 3000 nM | – | – | –

More lines, now with the values ahead:

IC50 [1, 3] | EC50 (Colo-205 cells; Homo sapiens, COLO 205, 0.6 h) | IC50 [2] | IC50 [1, 4] | EC50 (Colo-205 cells) | IC50 ([1]; Homo sapiens, COLO 205, 5 h, Colo 205 cells with stably transfected TCF/LEF luciferase reporter, read-out: TCF reporter Colo205) | Compound
< 300 nM | 600 to 2000 nM | < 60 nM | – | – | – | Cc1nc(NCc2cnn(Cc3cccc(C(C)C)c3)c2)nc2c1NC(=O)[C@H](C)N2C [Compound 80, (7S)-2-(((1-(3-isopropylbenzyl)-1H-pyrazol-4-yl)methyl)amino)-4,7,8-trimethyl-7,8-dihydropteridin-6(5H)-one]
< 300 nM | < 600 nM | < 60 nM | – | – | – | Cc1nc(NCc2cnn(C[C@H](C)c3ccc(F)cc3)c2)nc2c1NC(=O)[C@H](C)N2C [Compound 96, (7S)-2-(((1-((R)-2-(4-fluorophenyl)propyl)-1H-pyrazol-4-yl)methyl)amino)-4,7,8-trimethyl-7,8-dihydropteridin-6(5H)-one]
< 300 nM | 600 to 2000 nM | < 60 nM | – | – | – | Cc1nc(NCc2cnn(Cc3ccc(C(F)(F)F)nc3C(C)(C)O)c2)nc2c1NC(=O)[C@H](C)N2C [Compound 416, (7S)-2-(((1-((2-(2-hydroxypropan-2-yl)-6-(trifluoromethyl)pyridin-3-yl)methyl)-1H-pyrazol-4-yl)methyl)amino)-4,7,8-trimethyl-7,8-dihydropteridin-6(5H)-one]
< 300 nM | 600 to 2000 nM | < 60 nM | – | – | – | Cc1nc(NCc2cnn(Cc3cnc(Cl)c(F)c3)c2)nc2c1NC(=O)[C@H](C(C)C)N2C [Compound 424, (7S)-2-(((1-((6-chloro-5-fluoropyridin-3-yl)methyl)-1H-pyrazol-4-yl)methyl)amino)-7-isopropyl-4,8-dimethyl-7,8-dihydropteridin-6(5H)-one]
< 300 nM | < 600 nM | < 60 nM | – | – | – | Cc1nc(N[C@H]2C[C@H](Oc3cc(F)c(F)c(F)c3)C2)nc2c1N(C)C(=O)[C@H](C)N2C [Compound 253, (7S)-4,5,7,8-tetramethyl-2-((trans-3-(3,4,5-trifluorophenoxy)cyclobutyl)amino)-7,8-dihydropteridin-6(5H)-one]
< 300 nM | < 600 nM | < 60 nM | – | – | – | Cc1nc(NCc2cnn([C@@H]3C[C@@H]3c3ccc(F)cc3)c2)nc2c1NC(=O)[C@H](C)N2C [Compound 154, (7S)-2-(((1-((1R,2R)-2-(4-fluorophenyl)cyclopropyl)-1H-pyrazol-4-yl)methyl)amino)-4,7,8-trimethyl-7,8-dihydropteridin-6(5H)-one]
< 300 nM | 600 to 2000 nM | < 60 nM | – | – | – | Cc1nc(N[C@H]2C[C@H](Oc3ccnc(C(F)(F)F)c3)C2)nc2c1NC(=O)[C@H](C)N2C [Compound 335, (7S)-4,7,8-trimethyl-2-((trans-3-((2-(trifluoromethyl)pyridin-4-yl)oxy)cyclobutyl)amino)-7,8-dihydropteridin-6(5H)-one]
